# Assay results taken from US20230072421A1, “TARGETED RADIOPHARMACEUTICALS FOR THE DIAGNOSIS AND TREATMENT OF PROSTATE CANCER” (Bayer AS, priority 2019, published 2023).
# How the values were obtained:
# C4-2 cells = assay: Cell proliferation assay (CellTiter-Glo, 5-day exposure), C4-2; assay type: cell-based; details: C4-2, 1000 cells/well, Th-227 labelled at 375 kBq/nmol, mean of 1 to 6 experiments
# Procedure, shortened: (§1)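 Thorium-227-labeled PSMA small-molecule ligands were applied for 5 days to prostate cancer lines plated overnight at 1000 cells/well (22Rv1, C4-2, LNCaP) or 4000 cells/well (VCaP). CellTiter-Glo luminescence gave viability at day 0 in sister plates and again after exposure.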
# VCaP cells = assay: Cell proliferation assay (CellTiter-Glo, 5-day exposure), VCaP; assay type: cell-based; details: 4000 cells/well, Th-227 labelled at 375 kBq/nmol, mean of 1 to 6 experiments
# Procedure, shortened: as §1
# 22Rv1 cells = assay: Cell proliferation assay (CellTiter-Glo, 5-day exposure), 22Rv1; assay type: cell-based; details: 22Rv1, 1000 cells/well, Th-227 labelled at 375 kBq/nmol, mean of 1 to 6 experiments
# Procedure, shortened: as §1
# [1] = tested on: LNCaP human prostate cancer cells; assay: LNCaP xenograft efficacy study (T/C tumor area); assay type: in vivo, SCID mice; details: Example I
# Protocol: (§2) SCID mice were randomly assigned to experimental groups, ten animals per group (efficacy) or n=3-5 per time point of biodistribution study. At the initiation of the study, a testosterone pellet was subcutaneously transplanted, the animals were shaved, tattooed and each cage was labeled with the cage number, study number and number of animals per cage.
# (§3) LNCaP human prostate cancer cells were cultured as described according to the supplier's protocols. Cells were harvested for transplantation in a subconfluent (70%) state. Animals were injected with 5×10^6 LNCaP cells suspended in 100% Matrigel subcutaneously into the flank of the mice.
# Efficacy study: When tumors reached a predetermined size in mice of 35-50 mm^2 animals were randomized into treatment and control groups (n=10 animals/group) and treatment with the defined radioactive dose was started. The i.v. application volume was 100 μl/mice.
# Tumor response was assessed by determination of the tumor area (product of the longest diameter and its perpendicular) using a caliper. The animal body weight was monitored as a measure for treatment-related toxicity. Measurement of tumor area and body weight was performed two to three times weekly.
# Animals were sacrificed when showing signs of toxicity (>20% body weight loss) or when tumors reached a size of approximately 200 mm^2.
# Tumor growth inhibition is presented as T/C ratio (Treatment/Control) calculated with tumor areas when the vehicle control group had to be closed.
# [2] = Biodistribution study in LNCaP tumor-bearing mice (Th227 counted in organs); assay type: in vivo, SCID mice; details: 500 kBq/kg; for Th-227 in Blood / Th-227 in Femur and tibia / Th-227 in Kidneys / Th-227 in Liver / Th-227 in Salivary gland / Th-227 in Spleen / Th-227 in Tumor / Th-227 in prostate: study b2999
# Protocol: as §2, §3
# Biodistribution study: When tumors reached a predetermined size in mice of ˜50 mm^2 animals were randomized into groups (n=3 animals/time point) and the radioactive compound was once applied intravenously. The i.v. application volume was 100 μl/mice.
# At the predetermined time point, n=3 animals were sacrificed, the organs removed, weight and measured in a Germanium detector to count the Th227 in the sample.
smiles,measurement,setting,value
O=C(O)CCC(NC(=O)NC(CCCCNC(=O)C(Cc1ccc2ccccc2c1)NC(=O)C1CCC(CNC(=S)Nc2ccc(CC(CN(CCNC(=O)c3ccn(CCO)c(=O)c3[O-])CCNC(=O)c3ccn(CCO)c(=O)c3[O-])CN(CCNC(=O)c3ccn(CCO)c(=O)c3[O-])CCNC(=O)c3ccn(CCO)c(=O)c3[O-])cc2)CC1)C(=O)O)C(=O)O.[227Th+4] (centres unmarked) [Example 1-F-227Th],Proliferation assay on cancer cell lines by TTCs Default Pivot #3 IC50 [kBq/mL] C4-2 1000cells 375kBq/nmol (mean),C4-2 cells,2.14 kBq/mL
same,Proliferation assay on cancer cell lines by TTCs Default Pivot #3 IC50 [kBq/mL] VCap 4000cells 375kBq/nmol (mean),VCaP cells,3.07 kBq/mL
same,Proliferation assay on cancer cell lines by TTCs Default Pivot #3 IC50 [kBq/mL] 22Rv1 1000cells 375kBq/nmol (mean),22Rv1 cells,1.06 kBq/mL
same,T/Carea,"[1]; day 27, 2 x 400 + 2 x 750 kBq/kg weekly",1.03
same,T/Carea,"[1]; day 37, 2 x 400 + 3 x 750 kBq/kg",0.82
same,"Background in blood, liver and spleen (in words)",[2]; comparison of % injected dose per gram tissue,highest background
same,Th-227 in Blood,[2]; 0.25 h,4.80 % ID Th-227/g organ
same,Th-227 in Femur and tibia,[2]; 0.25 h,1.46 % ID Th-227/g organ
same,Th-227 in Kidneys,[2]; 0.25 h,51.79 % ID Th-227/g organ
same,Th-227 in Liver,[2]; 0.25 h,2.63 % ID Th-227/g organ
same,Th-227 in Salivary gland,[2]; 0.25 h,0.31 % ID Th-227/g organ
same,Th-227 in Spleen,[2]; 0.25 h,2.35 % ID Th-227/g organ
same,Th-227 in Tumor,[2]; 0.25 h,9.36 % ID Th-227/g organ
same,Th-227 in prostate,[2]; 0.25 h,3.62 % ID Th-227/g organ
same,Th-227 in Blood,[2]; 1 hr,2.28 % ID Th-227/g organ
same,Th-227 in Femur and tibia,[2]; 1 hr,1.68 % ID Th-227/g organ
same,Th-227 in Kidneys,[2]; 1 hr,58.96 % ID Th-227/g organ
same,Th-227 in Liver,[2]; 1 hr,2.41 % ID Th-227/g organ
same,Th-227 in Salivary gland,[2]; 1 hr,2.68 % ID Th-227/g organ
same,Th-227 in Spleen,[2]; 1 hr,1.86 % ID Th-227/g organ
same,Th-227 in Tumor,[2]; 1 hr,10.58 % ID Th-227/g organ
same,Th-227 in prostate,[2]; 1 hr,4.83 % ID Th-227/g organ
same,Th-227 in Blood,[2]; 6 hr,0.35 % ID Th-227/g organ
same,Th-227 in Femur and tibia,[2]; 6 hr,1.30 % ID Th-227/g organ
same,Th-227 in Kidneys,[2]; 6 hr,67.34 % ID Th-227/g organ
same,Th-227 in Liver,[2]; 6 hr,2.19 % ID Th-227/g organ
same,Th-227 in Salivary gland,[2]; 6 hr,1.48 % ID Th-227/g organ
same,Th-227 in Spleen,[2]; 6 hr,1.51 % ID Th-227/g organ
same,Th-227 in Tumor,[2]; 6 hr,13.03 % ID Th-227/g organ
same,Th-227 in prostate,[2]; 6 hr,1.97 % ID Th-227/g organ
same,Th-227 in Blood,[2]; 24 h,0.06 % ID Th-227/g organ
same,Th-227 in Femur and tibia,[2]; 24 h,0.88 % ID Th-227/g organ
same,Th-227 in Kidneys,[2]; 24 h,34.39 % ID Th-227/g organ
same,Th-227 in Liver,[2]; 24 h,2.49 % ID Th-227/g organ
same,Th-227 in Salivary gland,[2]; 24 h,0.75 % ID Th-227/g organ
same,Th-227 in Spleen,[2]; 24 h,0.94 % ID Th-227/g organ
same,Th-227 in Tumor,[2]; 24 h,6.05 % ID Th-227/g organ
same,Th-227 in prostate,[2]; 24 h,0.34 % ID Th-227/g organ
same,Th-227 in Blood,[2]; 72 h,0.02 % ID Th-227/g organ
same,Th-227 in Femur and tibia,[2]; 72 h,0.79 % ID Th-227/g organ
same,Th-227 in Kidneys,[2]; 72 h,12.99 % ID Th-227/g organ
same,Th-227 in Liver,[2]; 72 h,1.96 % ID Th-227/g organ
same,Th-227 in Salivary gland,[2]; 72 h,0.73 % ID Th-227/g organ
same,Th-227 in Spleen,[2]; 72 h,1.14 % ID Th-227/g organ
same,Th-227 in Tumor,[2]; 72 h,3.40 % ID Th-227/g organ
same,Th-227 in prostate,[2]; 72 h,0.68 % ID Th-227/g organ
same,Th-227 in Blood,[2]; 168 h,0.00 % ID Th-227/g organ
same,Th-227 in Femur and tibia,[2]; 168 h,1.07 % ID Th-227/g organ
same,Th-227 in Kidneys,[2]; 168 h,6.79 % ID Th-227/g organ
same,Th-227 in Liver,[2]; 168 h,2.14 % ID Th-227/g organ
same,Th-227 in Salivary gland,[2]; 168 h,0.74 % ID Th-227/g organ
same,Th-227 in Spleen,[2]; 168 h,1.34 % ID Th-227/g organ
same,Th-227 in Tumor,[2]; 168 h,1.13 % ID Th-227/g organ
same,Th-227 in prostate,[2]; 168 h,0.13 % ID Th-227/g organ
same,Th-227 in Blood,[2]; 336 h,0.00 % ID Th-227/g organ
same,Th-227 in Femur and tibia,[2]; 336 h,1.18 % ID Th-227/g organ
same,Th-227 in Kidneys,[2]; 336 h,2.29 % ID Th-227/g organ
same,Th-227 in Liver,[2]; 336 h,1.69 % ID Th-227/g organ
same,Th-227 in Salivary gland,[2]; 336 h,0.42 % ID Th-227/g organ
same,Th-227 in Spleen,[2]; 336 h,1.41 % ID Th-227/g organ
same,Th-227 in Tumor,[2]; 336 h,0.74 % ID Th-227/g organ
same,Th-227 in prostate,[2]; 336 h,0.22 % ID Th-227/g organ
